Measurements reported in BindingDB's records for PubMed 32711292 (n/a, 2020).

Experiments:
Maltase-glucoamylase [1] = target: T1, Maltase-glucoamylase (Homo sapiens, UniProt O43451); experiment: Inhibition of alpha-glucosidase (unknown origin) by HPLC analysis
Maltase-glucoamylase [2] = target: T1, Maltase-glucoamylase; experiment: Inhibition of alpha-glucosidase (unknown origin)

T1 sequence (O43451 whole entry): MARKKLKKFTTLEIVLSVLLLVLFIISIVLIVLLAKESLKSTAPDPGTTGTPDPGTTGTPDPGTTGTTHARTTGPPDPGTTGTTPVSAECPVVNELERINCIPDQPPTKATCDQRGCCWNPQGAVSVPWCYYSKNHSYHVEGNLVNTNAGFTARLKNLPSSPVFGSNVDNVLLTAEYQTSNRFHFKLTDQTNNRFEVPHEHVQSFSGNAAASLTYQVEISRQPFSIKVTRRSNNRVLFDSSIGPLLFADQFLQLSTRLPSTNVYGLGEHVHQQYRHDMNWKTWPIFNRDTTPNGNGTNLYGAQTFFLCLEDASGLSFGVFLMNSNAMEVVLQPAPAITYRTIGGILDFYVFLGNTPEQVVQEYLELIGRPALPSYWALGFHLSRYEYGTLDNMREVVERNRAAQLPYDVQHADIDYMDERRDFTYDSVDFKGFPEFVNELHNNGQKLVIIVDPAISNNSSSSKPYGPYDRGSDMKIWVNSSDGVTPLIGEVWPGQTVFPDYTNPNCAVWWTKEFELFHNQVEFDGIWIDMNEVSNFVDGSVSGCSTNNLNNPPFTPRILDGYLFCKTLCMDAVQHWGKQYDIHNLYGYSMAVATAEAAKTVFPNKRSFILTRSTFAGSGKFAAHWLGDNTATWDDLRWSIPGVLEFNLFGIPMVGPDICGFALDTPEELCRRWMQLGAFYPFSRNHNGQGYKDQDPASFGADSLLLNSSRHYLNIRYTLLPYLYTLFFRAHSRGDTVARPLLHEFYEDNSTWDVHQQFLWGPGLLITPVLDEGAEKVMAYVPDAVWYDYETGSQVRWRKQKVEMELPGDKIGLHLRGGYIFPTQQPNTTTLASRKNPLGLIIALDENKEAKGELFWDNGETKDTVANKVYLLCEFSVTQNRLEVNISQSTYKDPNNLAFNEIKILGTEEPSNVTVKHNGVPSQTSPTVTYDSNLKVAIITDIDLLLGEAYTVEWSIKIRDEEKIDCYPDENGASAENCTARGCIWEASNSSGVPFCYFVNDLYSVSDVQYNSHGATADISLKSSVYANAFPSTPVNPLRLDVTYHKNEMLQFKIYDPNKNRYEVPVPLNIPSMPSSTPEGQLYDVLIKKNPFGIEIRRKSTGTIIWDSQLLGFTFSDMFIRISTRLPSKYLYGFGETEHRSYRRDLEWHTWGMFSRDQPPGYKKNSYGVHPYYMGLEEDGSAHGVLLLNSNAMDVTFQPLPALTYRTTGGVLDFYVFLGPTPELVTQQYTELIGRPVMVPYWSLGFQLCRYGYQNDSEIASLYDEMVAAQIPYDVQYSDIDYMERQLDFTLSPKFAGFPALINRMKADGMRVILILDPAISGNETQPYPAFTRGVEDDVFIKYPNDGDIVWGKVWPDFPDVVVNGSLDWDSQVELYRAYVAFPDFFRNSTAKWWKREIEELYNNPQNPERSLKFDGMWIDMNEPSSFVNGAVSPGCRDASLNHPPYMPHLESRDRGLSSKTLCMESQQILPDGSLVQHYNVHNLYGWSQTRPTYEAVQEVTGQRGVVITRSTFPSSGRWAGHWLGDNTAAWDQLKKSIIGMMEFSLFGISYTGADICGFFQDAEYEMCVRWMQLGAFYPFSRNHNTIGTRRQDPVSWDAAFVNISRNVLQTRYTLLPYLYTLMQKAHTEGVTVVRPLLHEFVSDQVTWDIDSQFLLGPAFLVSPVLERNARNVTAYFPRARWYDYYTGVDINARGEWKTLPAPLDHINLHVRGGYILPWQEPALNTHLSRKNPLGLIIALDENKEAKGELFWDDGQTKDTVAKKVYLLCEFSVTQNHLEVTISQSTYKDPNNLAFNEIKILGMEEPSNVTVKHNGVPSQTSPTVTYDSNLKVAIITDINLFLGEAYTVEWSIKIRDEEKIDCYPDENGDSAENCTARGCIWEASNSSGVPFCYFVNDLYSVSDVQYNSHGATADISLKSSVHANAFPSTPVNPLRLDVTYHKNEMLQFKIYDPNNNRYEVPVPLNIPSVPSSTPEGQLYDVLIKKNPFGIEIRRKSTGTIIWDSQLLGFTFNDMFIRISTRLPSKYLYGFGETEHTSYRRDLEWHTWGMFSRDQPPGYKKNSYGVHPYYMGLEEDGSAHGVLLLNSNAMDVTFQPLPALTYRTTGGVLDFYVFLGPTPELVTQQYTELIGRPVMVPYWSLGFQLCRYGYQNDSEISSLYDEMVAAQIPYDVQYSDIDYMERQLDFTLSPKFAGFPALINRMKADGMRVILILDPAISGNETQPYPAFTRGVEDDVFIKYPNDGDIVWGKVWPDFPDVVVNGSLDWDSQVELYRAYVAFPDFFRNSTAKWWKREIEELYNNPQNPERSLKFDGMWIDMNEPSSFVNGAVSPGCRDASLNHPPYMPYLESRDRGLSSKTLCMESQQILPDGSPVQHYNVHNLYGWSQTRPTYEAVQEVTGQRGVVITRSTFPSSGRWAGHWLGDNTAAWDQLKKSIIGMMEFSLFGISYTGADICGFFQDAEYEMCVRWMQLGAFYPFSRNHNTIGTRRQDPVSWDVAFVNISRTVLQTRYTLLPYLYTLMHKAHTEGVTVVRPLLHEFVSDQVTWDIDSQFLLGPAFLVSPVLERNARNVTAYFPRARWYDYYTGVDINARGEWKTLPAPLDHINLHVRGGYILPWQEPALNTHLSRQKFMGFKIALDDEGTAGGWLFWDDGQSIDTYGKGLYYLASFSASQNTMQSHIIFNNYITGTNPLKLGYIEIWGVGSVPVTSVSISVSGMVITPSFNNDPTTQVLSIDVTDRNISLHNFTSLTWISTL

Structure (SMILES)	IC50 (Maltase-glucoamylase [1])	IC50 (Maltase-glucoamylase [2])
COc1ccc(CCc2cc(O)c(O)c(OC)c2)cc1	200 µM	
COc1cc([C@@H]2Oc3cc(CCc4ccc(O)cc4)cc(OC)c3O[C@H]2CO)cc(OC)c1O	9460 µM	
COc1cc(CCc2cccc(O)c2)cc(O)c1O	214 µM	
COc1cc(O)cc(CCc2cccc(O)c2)c1 [Batatasin III (4)]		149 µM
COc1cc(O)cc(CCc2ccc(O)c(OC)c2)c1 [GIGANTOL]		103 µM
